In patent publication US20230241075A1, “IRAK DEGRADERS AND USES THEREOF” (Kymera Therapeutics, Inc., priority 2020, published 2023):
Entries after “also recorded” stand apart in the source; their conditions may differ.

System: TLR7/8 agonist R848-stimulated monocytes
Experiment: Ex-vivo R848-stimulated healthy monocytes, RNA-seq of HS-overexpressed proinflammatory transcripts
Format: cell-based, human
Conditions: healthy donor monocytes (N=3), 500 nM overnight, then R848, RNA-seq at 2 hours

Cn1c(=O)n(C2CCC(=O)NC2=O)c2cccc(C#CCOC3CCN(C[C@H]4CC[C@H](n5cc(NC(=O)c6cnn7ccc(N8C[C@H]9C[C@@H]8CO9)nc67)c(C(F)F)n5)CC4)CC3)c21 (stereo partly shown) [Degrader 2]
effect on TLR-mediated (R848) induction of HS-overexpressed proinflammatory transcripts: inhibits TLR-mediated induction of HS-overexpressed proinflammatory transcripts; also recorded: inhibits TLR-stimulated upregulation of HS-overexpressed inflammatory genes
